Where two headings read alike, the source gives them in different places.
Experiments:
[1] = cited from earlier work
[2] = Stable iron isotope absorption study in healthy adult women (erythrocyte incorporation of oral isotopic labels)
Description: The human study was a controlled, single blind (to the subjects), single center trial. Healthy adult women (n = 23) consumed 6 different types of investigational products in random order with a cross-over design: bouillon with and without corn porridge fortified either with [^58Fe]-PA-HCP, [^54Fe]-SO4, or [^57Fe]-PP, resulting in 6 different test meal sequences. The sequences built up a Partial Williams Latin square, balanced for first order carry over. The experimental phase lasted for a period of 33 days.
The human study was conducted between December 2016 and February 2017 at the Laboratory of Human Nutrition of the ETH Zurich. […] The study procedure was explained in detail and written informed consent was obtained. An interview was conducted, weight and height were measured and a venous blood sample was drawn to assess whether participants fulfilled inclusion and exclusion criteria (Hb, Ht, number of erythrocytes, PF). […] The labelled iron-fortified test meals were administered on days 1, 2, 3, 17, 18 and 19 (Fig. 3). Test meals were administered between 07:00 and 09:30 after an overnight fast. The participants consumed the complete test meal and a glass of 300 mL ultrapure water in the presence of the investigators. […] Quantitative consumption of the investigational product was ensured by washing the glass test meal container 2 times with 10 mL of ultrapure water. After consuming the test meals, participants were not allowed to eat or drink for 3 h.
Venous blood samples were collected after an overnight fast on day 1 (baseline), day 17 and day 33 (endpoint) to determine iron status and iron absorption from the test meals. Iron absorption was determined by quantifying the incorporation of oral stable isotopic labels into erythrocytes. Adverse events and concomitant medication were inquired and documented during the entire study. All experiments were performed in accordance with relevant guidelines and regulations. The study was approved by the ethics Committee of the Canton Zurich, Switzerland (KEK-ZH-Nr. 2016–01472). Participants gave informed written consent before participation in the study and received a symbolic reimbursement at the end of the trial. The study was registered at clinicaltrials.gov as NCT02993835 on December 15, 2016.
The bouillon meal was prepared from 300 g ultrapure water and 7 g commercial vegetable bouillon powder (Maggi Gemüse Bouillon, Maggi, Singen, Germany) per serving. The bouillon contained iodized salt, dehydrated vegetables (onion, carrot, spinach, celery), yeast extracts, white sugar, potato starch, vegetable extracts (carrot, leek, onion, garlic), sunflower seed oil, natural flavours, spices (curcumin, paprika, nutmeg), chervil, caramelized sugar and natural celery flavour. […] The inhibitory meal was a corn porridge, prepared from 300 g ultrapure water, 7 g commercial vegetable bouillon powder and 50 g whole corn flour per serving (Farina per polenta integrale, Paolo Bassetti, Pianezzo, Switzerland) to achieve an absorption-inhibiting PA:Fe molar ratio of 5.0[31],[40], representative of a moderately inhibitory meal. Whole corn flour has a phytic acid content of about 1–2%, which is higher than in wheat (0.9%) and rice (0.7%)[12],[41]. Test meals were prepared the day before each feeding and stored in individual portions in a refrigerator overnight. On the day of administration, test meals were heated in a microwave oven. The pre-weighed vials containing the labeled iron compounds were added to the test meals and were rinsed 2 times with 2 mL of ultrapure water. […] Bouillon meals further contained 0.1 mg intrinsic iron and the inhibitory meals contained 0.8 mg Fe from the corn flour.

[3] = cited from earlier work; remark: listed apart in the source
[4] = dogs, cited from earlier work
[5] = PF < 40 µg/L, bouillon + inhibitory meal
[6] = PF ≥ 40 µg/L, bouillon + inhibitory meal

Description for Caco-2 cells: In parallel to the in vivo human study, in vitro bioaccessibility of the iron compounds was assessed using a Caco-2 cell assay by assessing the amount of ferritin formed in response to the exposure to different digests. Iron fortified bouillon and bouillon with whole corn flour were prepared following the same procedure reported for the human study using [^58Fe]-PA-HCP, [^57Fe]-PP and [^54Fe]-SO4 at the level of 2.1 mg iron/3.3 g of bouillon mass through dry mixing. The resulting fortified bouillon mass was split in five fractions. Three fractions were analysed to assess iron homogeneity in the sample via Inductively Coupled Plasma Optical Emission Spectrometry (ICP-OES) as reported earlier[48] and the remaining two fractions were sent to USDA-ARS Robert Holley Center for Agriculture and Health (Ithaca, NY, USA) to determine in vitro fractional bioaccessibility (IVFBA). […]
In vitro relative bioaccessibility (IVRBA) of iron from the 2 meals with the 3 iron compounds was calculated based on ferritin formation in the Caco-2 cells: Invitrorelativebioaccessibility(IVRBA)=ngferrittinoffortifiedsample/mgproteinoffortifiedsample/ngferrittinofsamplefortifiedwith[^54Fe]SO4/mgproteinofsamplefortifiedwith[^54Fe]SO4×100
In the in vitro study, the IVFBAs were also approximately log normally distributed and analysed by robust ANOVA. […]

For `O=P([O-])([O-])OP(=O)([O-])[O-].O=P([O-])([O-])OP(=O)([O-])[O-].O=P([O-])([O-])OP(=O)([O-])[O-].[Fe+3].[Fe+3].[Fe+3].[Fe+3]` [FePP, Ferric pyrophosphate], the RBV ([1]; fortified bouillon cubes, mean PF of participants 9.4 µg/L) is listed as 13%, the “factor (FIA, bouillon vs bouillon + inhibitory meal)” value ([2]; PF < 40 µg/L) is listed as 6.7 and the “factor (RBV, bouillon + inhibitory meal vs bouillon)” value ([2]; PF < 40 µg/L) is listed as 1.2. For the same molecule, the “FIA, geo-mean” value ([2]; PF < 40 µg/L, bouillon) was 1.9%, the “RBV, geo-mean” value ([2]; PF < 40 µg/L, bouillon) was 5.8% and the “FIA, geo-mean” value [2, 5] was 0.3%. For the same molecule, the “RBV, geo-mean” value [2, 5] was 7.1%, the “factor (FIA, bouillon vs bouillon + inhibitory meal)” value ([2]; PF ≥ 40 µg/L) was 6.2 and the “factor (RBV, bouillon + inhibitory meal vs bouillon)” value ([2]; PF ≥ 40 µg/L) was 0.9. The “FIA, geo-mean” value ([2]; PF ≥ 40 µg/L, bouillon) was 1.7%, the “RBV, geo-mean” value ([2]; PF ≥ 40 µg/L, bouillon) was 8.8% and the “FIA, geo-mean” value [2, 6] was 0.3%. The “RBV, geo-mean” value [2, 6] was 8.3%, the “Factor by which FIA is lower in the inhibitory meal compared to bouillon” value ([2]; all participants) was 5.9 and the “Factor by which RBV is higher in the inhibitory meal compared to bouillon” value ([2]; all participants) was 1.2.
In the case of `O=P(O)(O)OC1C(OP(=O)(O)O)C(OP(=O)(O)O)C(OP(=O)(O)O)C(OP(=O)(O)O)C1OP(=O)(O)O.[Fe+3]` (stereo not drawn) [monoferric phytate], the “relative biological value of iron” value ([3]; rat study) is listed as “equivalent to common iron fortificants such as ferrous ammonium sulfate”, the bioavailability ([3]; rats) is listed as “highly bioavailable” and the absorption ([4]; added to meals) is listed as “equal to the major pool of dietary inorganic iron”. The bioavailability [4] was “highly bioavailable” and the iron absorption ([1]; humans) was “absorbed at least as well as the common pool of non-heme dietary iron”.
For Diphosphate sodium salt, the fractional absorption ([1]; bouillon, with the diphosphate added (4.4% without)) is given as 6.4% and the relative bioavailability ([1]; in vivo) is given as 13–23%.
With ferrous sulfate [FeSO4] the “Factor by which FIA is lower in the inhibitory meal compared to bouillon” value ([2]; in vivo) was 6.8 and the “In vitro fractional bioaccessibility (IVFBA), geo-mean” value (Caco-2 cells) was 9.6%.

Source: publication PMC7093532, “Iron bioavailability from bouillon fortified with a novel ferric phytate compound: a stable iron isotope study in healthy women (part II)” (Scientific Reports, 2020)
